For the experiment, the target named is phosphorylated active hERK2 enzyme (Homo sapiens (Human), UniProt P28482). In words: Active Human ERK2 (hERK2) Activity Assay (IMAP-FP). Format: biochemical. The conditions noted are these: Table 6, 0.5 nM hERK2, 30 μM ATP, 10 point titration, read-out: AERK2 IC50. The essentials:
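IMAP detection beads in buffer with 24 mM NaCl stopped the reaction, and fluorescence polarization was read after 60 min binding.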

Chain of phosphorylated active hERK2 enzyme (P28482 whole entry): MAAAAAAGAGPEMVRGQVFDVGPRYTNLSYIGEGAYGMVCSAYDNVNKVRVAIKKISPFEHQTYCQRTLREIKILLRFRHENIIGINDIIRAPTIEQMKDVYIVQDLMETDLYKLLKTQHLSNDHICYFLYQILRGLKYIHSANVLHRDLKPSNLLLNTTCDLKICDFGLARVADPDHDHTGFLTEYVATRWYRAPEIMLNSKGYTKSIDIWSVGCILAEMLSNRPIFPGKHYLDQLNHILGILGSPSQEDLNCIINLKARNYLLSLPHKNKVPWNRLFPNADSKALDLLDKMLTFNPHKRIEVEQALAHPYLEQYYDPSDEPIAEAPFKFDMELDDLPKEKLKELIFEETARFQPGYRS

The IC50 is the concentration needed to halve the response being measured. With `CC(=O)Nc1n[nH]c2cc(NC(=O)N[C@H](COC(F)F)c3ccccc3)ncc12` [Example 364, N-[6-({[(1S)-2-(difluoromethoxy)-1-phenylethyl]-carbamoyl}amino)-1H-pyrazolo[4,3-c]pyridin-3-yl]-acetamide], the IC50 is 0.3 nM.

Turning to `C[C@@H](O)[C@@H](NC(=O)Nc1cc2[nH]nc(N3CCC(F)(F)CC3)c2cn1)c1ccc(F)cc1` [Example 365, 1-[3-(4,4-difluoropiperidin-1-yl)-1H-pyrazolo[4,3-c]pyridin-6-yl]-3-[(1S,2R)-1-(4-fluorophenyl)-2-hydroxypropyl]urea], the IC50 came out at 0.9 nM.

`CC(C)(O)[C@@H](NC(=O)Nc1cc2[nH]nc(N3CCC(F)(F)CC3)c2cn1)c1ccccc1` [Example 366, 1-[3-(4,4-difluoropiperidin-1-yl)-1H-pyrazolo[4,3-c]pyridin-6-yl]-3-[(1S)-2-hydroxy-2-methyl-1-phenylpropyl]urea]: the IC50 was determined as 0.4 nM.

As to `CC(C)(O)[C@@H](NC(=O)Nc1cc2[nH]nc(N3CC(F)(F)C3)c2cn1)c1ccccc1` [Example 367, 1-[3-(3,3-difluoro-azetidin-1-yl)-1H-pyrazolo[4,3-c]-pyridin-6-yl]-3-[(1S)-2-hydroxy-2-methyl-1-phenylpropyl]urea], the 50% inhibitory concentration (IC50) stood at 0.6 nM.

In the case of `C[C@@H](NC(=O)Nc1cc2[nH]nc3c2c(n1)COC(=O)N3)c1ccccc1` [Example 368, 1-(8-oxo-2,6,8,9-tetrahydro-7-oxa-1,2,5,9-tetraazabenzo[cd]-azulen-4-yl)-3-[(1R)-1-phenylethyl]urea], the concentration for half-maximal inhibition (IC50) was found to be 1.1 nM.

For the compound `COC[C@@H](NC(=O)Nc1cc2[nH]nc(Nc3cnn(C)c3)c2cn1)c1ccccc1` [Example 370, 1-[(1S)-2-methoxy-1-phenylethyl]-3-{3-[(1-methyl-1H-pyrazol-4-yl)-amino]-1H-pyrazolo[4,3-c]-pyridin-6-yl}urea], the half-inhibitory concentration (IC50) turned out to be 19.7 nM.

For `COCCNc1n[nH]c2cc(NC(=O)N[C@H](COC)c3ccccc3)ncc12` [Example 371, 1-{3-[(2-methoxy-ethyl)amino]-1H-pyrazolo[4,3-c]-pyridin-6-yl}-3-[(1S)-2-methoxy-1-phenylethyl]urea], the IC50 amounted to 0.7 nM.

Take `COC[C@@H](NC(=O)Nc1cc2[nH]nc(Nc3cnn(C)c3)c2cn1)c1ccc(F)cc1` [Example 372, 1-[(1S)-1-(4-fluorophenyl)-2-methoxyethyl]-3-{3-[(1-methyl-1H-pyrazol-4-yl)-amino]-1H-pyrazolo[4,3-c]-pyridin-6-yl}urea]: the IC50 was 14.7 nM.

In the case of `COCCNc1n[nH]c2cc(NC(=O)N[C@H](C)c3ccc(F)cc3)ncc12` [Example 374, 1-[(1R)-1-(4-fluorophenyl)ethyl]-3-{3-[(2-methoxy-ethyl)amino]-1H-pyrazolo[4,3-c]-pyridin-6-yl}urea], the 50% inhibitory concentration (IC50) turned out to be 2.8 nM.

Regarding `Nc1n[nH]c2cc(NC(=O)N[C@H](CO)c3ccccc3)ncc12` [Example 375, 1-(3-amino-1H-pyrazolo[4,3-c]-pyridin-6-yl)-3-[(1S)-2-hydroxy-1-phenylethyl]urea], the 50% inhibitory concentration (IC50) was 2.5 nM.

On to `C[C@@H](NC(=O)Nc1cc2[nH]nc(N3CC4C5CCC(C)(O5)C4C3)c2cn1)c1ccc(F)cc1` (stereo partly drawn) [Example 376, 1-[(1R)-1-(4-fluorophenyl)ethyl]-3-[3-(4-methyl-octahydro-2H-4,7-epoxyisoindol-2-yl)-1H-pyrazolo[4,3-c]-pyridin-6-yl]urea], for which the IC50 amounted to 13.8 nM.

For `CC12CCC(O1)C1CN(c3n[nH]c4cc(NC(=O)N[C@@H](c5ccc(F)cc5)C(C)(C)O)ncc34)CC12` (stereo partly drawn) [Example 377, 1-[(1S)-1-(4-fluorophenyl)-2-hydroxy-2-methyl-propyl]-3-[3-(4-methyloctahydro-2H-4,7-epoxyisoindo1-2-yl)-1H-pyrazolo[4,3-c]-pyridin-6-yl]urea], the IC50 came to 2.3 nM.

`C[C@@H](NC(=O)Nc1cc2[nH]nc(Nc3ccccc3)c2cn1)c1ccccc1` [Example 379, 1-[3-(phenyl-amino)-1H-pyrazolo[4,3-c]-pyridin-6-yl]-3-[(1R)-1-phenylethyl]urea]: the 50% inhibitory concentration (IC50) turned out to be 127 nM.

As for `C[C@@H](NC(=O)Nc1cc2[nH]nc(Nc3ccc(C#N)nc3)c2cn1)c1ccccc1` [Example 381, 1-{3-[(6-cyanopyridin-3-yl)amino]-1H-pyrazolo[4,3-c]-pyridin-6-yl}-3-[(1R)-1-phenylethyl]urea], the IC50 worked out at 367 nM.

As for `C[C@@H](NC(=O)Nc1cc2[nH]nc(Nc3ccc(F)nc3)c2cn1)c1ccccc1` [Example 382, 1-{3-[(6-fluoropyridin-3-yl)amino]-1H-pyrazolo[4,3-c]-pyridin-6-yl}-3-[(1R)-1-phenylethyl]urea], the 50% inhibitory concentration (IC50) was found to be 72.1 nM.

In the case of `COC[C@@H](NC(=O)Nc1cc2[nH]nc(Nc3ccccc3C#N)c2cn1)c1ccccc1` [Example 383, 1-{3-[(2-cyanophenyl)amino]-1H-pyrazolo[4,3-c]pyridin-6-yl}-3-[(1S)-2-methoxy-1-phenylethyl]urea], the half-maximal inhibitory concentration (IC50) turned out to be 2280 nM.

Regarding `COC[C@@H](NC(=O)Nc1cc2[nH]nc(Nc3ccccc3F)c2cn1)c1ccccc1` [Example 384, 1-{3-[(2-fluoro-phenyl)amino]-1H-pyrazolo[4,3-c]-pyridin-6-yl}-3-[(1S)-2-methoxy-1-phenylethyl]urea], the IC50 was found to be 9.4 nM.

`COC(=O)Nc1n[nH]c2cc(NC(=O)N[C@@H](c3ccccc3)C3(O)CCC3)ncc12` [Example 385, methyl [6-({[(S)-(1-hydroxycyclo-butyl)(phenyl)-methyl]carbamoyl}amino)-1H-pyrazolo[4,3-c]-pyridin-3-yl]-carbamate]: the IC50 amounted to 2 nM.

Consider `COC(=O)Nc1n[nH]c2cc(NC(=O)N[C@@H](c3ccc(F)cc3)C3(O)CCC3)ncc12` [Example 386, methyl [6-({[(S)-(4-fluorophenyl)(1-hydroxycyclobutyl)methyl]carbamoyl}amino)-1H-pyrazolo[4,3-c]-pyridin-3-yl]-carbamate], for which the IC50 turned out to be 0.4 nM.

Regarding `C[C@@H](O)[C@@H](NC(=O)Nc1cc2[nH]nc(N3CCc4ncsc4C3)c2cn1)c1ccccc1` [Example 387, 1-[3-(6,7-dihydro[1,3]-thiazolo[5,4-c]-pyridin-5(4H)-yl)-1H-pyrazolo[4,3-c]pyridin-6-yl]-3-[(1S,2R)-2-hydroxy-1-phenylpropyl]urea], the IC50 came to 0.5 nM.

`C[C@H](O)[C@@H](NC(=O)Nc1cc2[nH]nc(N3CCc4ncsc4C3)c2cn1)c1ccccc1` [Example 388, 1-[3-(6,7-dihydro[1,3]-thiazolo[5,4-c]pyridin-5(4H)-yl)-1H-pyrazolo[4,3-c]-pyridin-6-yl]-3-[(1S,2S)-2-hydroxy-1-phenylpropyl]urea]: the IC50 turned out to be 34.6 nM.

Consider `COC(=O)Nc1n[nH]c2cc(NC(=O)N[C@@H](c3ccccc3)C(C)(C)O)ncc12` [Example 389, methyl [6-({[(1S)-2-hydroxy-2-methyl-1-phenyl-propyl]carbamoyl}amino)-1H-pyrazolo[4,3-c]-pyridin-3-yl]-carbamate], for which the concentration for half-maximal inhibition (IC50) turned out to be 0.4 nM.

With `COC(=O)Nc1n[nH]c2cc(NC(=O)N[C@@H](c3ccc(F)cc3)C(C)(C)O)ncc12` [Example 390, methyl [6-({[(1S)-1-(4-fluorophenyl)-2-hydroxy-2-methylpropyl]-carbamoyl}amino)-1H-pyrazolo[4,3-c]pyridin-3-yl]-carbamate], the 50% inhibitory concentration (IC50) amounted to 0.5 nM.

With `C[C@@H](NC(=O)Nc1cc2[nH]nc(N3CCc4nn(C)cc4C3)c2cn1)c1ccc(F)cc1` [Example 391, 1-[(1R)-1-(4-fluorophenyl)ethyl]-3-(2′-methyl-2′,4′,6′,7′-tetrahydro-1H-3,5′-bipyrazolo[4,3-c]-pyridin-6-yl)urea], the IC50 was found to be 0.4 nM.

Regarding `COC(=O)Nc1n[nH]c2cc(NC(=O)NC(c3ccc(Cl)c(Cl)c3)c3cnco3)ncc12` (centres unmarked) [Example 392, methyl [6-({[(3,4-dichlorophenyl)(1,3-oxazol-5-yl)-methyl]carbamoyl}amino)-1H-pyrazolo[4,3-c]-pyridin-3-yl]-carbamate], the concentration for half-maximal inhibition (IC50) worked out at 2.6 nM.

With `C[C@@H](O)[C@@H](NC(=O)Nc1cc2[nH]nc(N3CCc4nn(C)cc4C3)c2cn1)c1ccccc1` [Example 393, 1-[(1S,2R)-2-hydroxy-1-phenylpropyl]-3-(2′-methyl-2′,4′,6′,7′-tetrahydro-1H-3,5′-bipyrazolo[4,3-c]-pyridin-6-yl)urea], the half-inhibitory concentration (IC50) is 0.4 nM.

Consider `COC(=O)Nc1n[nH]c2cc(NC(=O)N[C@H]3c4ccccc4OCC[C@H]3O)ncc12` [Example 394, methyl [6-({[(4R,5S)-4-hydroxy-2,3,4,5-tetrahydro-1-benzoxepin-5-yl]-carbamoyl}amino)-1H-pyrazolo[4,3-c]pyridin-3-yl]-carbamate], for which the IC50 stood at 0.3 nM.

Take `CC(=O)Nc1n[nH]c2cc(NC(=O)N[C@@H](c3ccc(F)cc3)C(C)(C)O)ncc12` [Example 395, N-[6-({[(1S)-1-(4-fluorophenyl)-2-hydroxy-2-methylpropyl]-carbamoyl}amino)-1H-pyrazolo[4,3-c]-pyridin-3-yl]-acetamide]: the half-inhibitory concentration (IC50) is 0.6 nM.

Consider `O=C(Nc1cc2[nH]nc(NC(=O)N3CC(F)(F)C3)c2cn1)N[C@H]1c2ccccc2OCC[C@H]1O` [Example 396], for which the half-maximal inhibitory concentration (IC50) stood at 0.3 nM.

In the case of `O=C(Nc1cc2[nH]nc(NC(=O)N3CC(F)(F)C3)c2cn1)N[C@@H]1CCCOc2ccccc21` [Example 397, 3,3-difluoro-N-(6-{[(5R)-2,3,4,5-tetrahydro-1-benzoxepin-5-yl-carbamoyl]amino}-1H-pyrazolo[4,3-c]pyridin-3-yl)-azetidine-1-carboxamide], the 50% inhibitory concentration (IC50) was determined as 4.4 nM.

As for `CC(C)OC(=O)Nc1n[nH]c2cc(NC(=O)N[C@H](C)c3ccc(F)cc3)ncc12` [Example 398, 1-methylethyl [6-({[(1R)-1-(4-fluorophenyl)ethyl]carbamoyl}amino)-1H-pyrazolo[4,3-c]pyridin-3-yl]-carbamate], the IC50 was 52.5 nM.

In the case of `C[C@@H](NC(=O)Nc1cc2[nH]nc(NC(=O)OC3CCOCC3)c2cn1)c1ccc(F)cc1` [Example 399, tetrahydro-2H-pyran-4-yl [6-({[(1R)-1-(4-fluorophenyl)ethyl]carbamoyl}amino)-1H-pyrazolo[4,3-c]pyridin-3-yl]-carbamate], the half-maximal inhibitory concentration (IC50) stood at 19.7 nM.

For the origin of these results see patent US9233979B2, “Compounds that are ERK inhibitors” (Merck Sharp & Dohme Corp., priority 2012, dated 2016).
